Source: PubChem BioAssay AID330 (DTP/NCI, 2004)
Values joined by “and” are separate entries in the source; they are usually repeats but may differ in a detail not shown here. Equal entries are not always repeated. Inconclusive results and toxic doses are left out. How the source made its calls: active means survival T/C of 150% or more; inactive means T/C below 125% in these data. Peptide text beside a SMILES is read from it. * marks the point of attachment. Cbz = O=C(OCc1ccccc1)*

Test system: P388 leukemia ip, CD2F1 mice, survival T/C
Experiment: NCI In Vivo Anticancer Drug Screen. Data for tumor model P388 Leukemia (intraperitoneal) in CD2F1 (CDF1) mice
Details: endpoint: median survival time, higher = longer survival
Outline: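 Mice carrying the transplanted tumor received test compound or vehicle. Survival was recorded in each group, and the value is the treated-group measurement divided by that of the vehicle-treated control group.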

[1] = dose: 100.0 mg/kg/injection, schedule: Q01DX009 (ip), vehicle: saline with Tween-80
[2] = dose: 50.0 mg/kg/injection, schedule: Q01DX005 (ip), vehicle: saline with Tween-80
[3] = dose: 100.0 mg/kg/injection, schedule: Q01DX005 (ip), vehicle: saline with Tween-80
[4] = dose: 100.0 mg/kg/injection, schedule: Q01DX009 (ip), vehicle: Klucel (hydroxypropylcellulose) (HPC)
[5] = dose: 200.0 mg/kg/injection, schedule: Q01DX009 (ip), vehicle: Klucel (hydroxypropylcellulose) (HPC)
[6] = dose: 200.0 mg/kg/injection, schedule: Q01DX005 (ip), vehicle: saline with Tween-80
[7] = dose: 100.0 mg/kg/injection, schedule: Q01DX001 (ip), vehicle: Klucel (hydroxypropylcellulose) (HPC)
[8] = dose: 200.0 mg/kg/injection, schedule: Q01DX001 (ip), vehicle: Klucel (hydroxypropylcellulose) (HPC)

Measured: T/C

COC(=O)C(Br)CN1C(=O)c2ccccc2C1=O (stereo not given)
inactive: dose: 25.0 mg/kg/injection, schedule: Q01DX009 (ip), vehicle: other 102 % of control | dose: 50.0 mg/kg/injection, schedule: Q01DX009 (ip), vehicle: other 101 % of control | dose: 100.0 mg/kg/injection, schedule: Q01DX009 (ip), vehicle: other 106 % of control | dose: 200.0 mg/kg/injection, schedule: Q01DX009 (ip), vehicle: other 104 % of control | dose: 400.0 mg/kg/injection, schedule: Q01DX009 (ip), vehicle: other 104 % of control

Cc1ccc(NC(=S)SCc2ccc(Cl)cc2)cc1C
inactive: dose: 50.0 mg/kg/injection, schedule: Q01DX009 (ip), vehicle: suspension in saline 101 % of control | dose: 100.0 mg/kg/injection, schedule: Q01DX009 (ip), vehicle: suspension in saline 107 % of control | dose: 200.0 mg/kg/injection, schedule: Q01DX009 (ip), vehicle: suspension in saline 97 % of control

CCOC(=O)CC12C=CC(CC(=O)OCC)(CC1)n1c(=O)n(C)c(=O)n12
inactive: dose: 100.0 mg/kg/injection, schedule: Q04DX002 (ip), vehicle: saline with Tween-80 100 % of control | dose: 200.0 mg/kg/injection, schedule: Q04DX002 (ip), vehicle: saline with Tween-80 100 % of control | dose: 400.0 mg/kg/injection, schedule: Q04DX002 (ip), vehicle: saline with Tween-80 101 % of control

Clc1ccc(N=C(c2ccncc2)c2cc(Cl)ccc2Cl)cc1
inactive: dose: 50.0 mg/kg/injection, schedule: Q01DX009 (ip), vehicle: saline with Tween-80 109 % of control | [1] 92 % of control

CCN(CC)CCN1C(=O)CCC1=O
inactive: dose: 50.0 mg/kg/injection, schedule: Q01DX005 (ip), vehicle: saline 100 % of control | dose: 100.0 mg/kg/injection, schedule: Q01DX005 (ip), vehicle: saline 109 % of control | dose: 200.0 mg/kg/injection, schedule: Q01DX005 (ip), vehicle: saline 104 % of control

C#CC[N+]1(C)CCC=C(C(=O)OC)C1 (stereo not given)
inactive: dose: 25.0 mg/kg/injection, schedule: Q01DX009 (ip), vehicle: saline 97 % of control

CCOC(=O)/C(Cl)=N/Nc1ccccc1
inactive: [2] 97 % of control | [3] 111 % of control

COC1=CC(O)(CC(N)=O)c2ccccc2C1=O (stereo not given)
inactive: dose: 3.13 mg/kg/injection, schedule: Q01DX009 (ip), vehicle: distilled water + Tween-80 99 % of control | dose: 6.25 mg/kg/injection, schedule: Q01DX009 (ip), vehicle: distilled water + Tween-80 100 % of control | dose: 12.5 mg/kg/injection, schedule: Q01DX009 (ip), vehicle: distilled water + Tween-80 98 % of control | dose: 25.0 mg/kg/injection, schedule: Q01DX009 (ip), vehicle: distilled water + Tween-80 102 % of control | dose: 50.0 mg/kg/injection, schedule: Q01DX009 (ip), vehicle: distilled water + Tween-80 92 % of control | dose: 100.0 mg/kg/injection, schedule: Q01DX009 (ip), vehicle: distilled water + Tween-80 92 % of control

ClCCOCCOc1c(Cl)cc(Cl)cc1Cl
inactive: [4] 93 % of control | [5] 103 % of control | dose: 400.0 mg/kg/injection, schedule: Q01DX009 (ip), vehicle: Klucel (hydroxypropylcellulose) (HPC) 100 % of control

Cc1cc2cc3c(C)cc(=O)oc3c(C)c2o1
inactive: [1] 118 % of control | dose: 200.0 mg/kg/injection, schedule: Q01DX009 (ip), vehicle: saline with Tween-80 112 % of control | dose: 400.0 mg/kg/injection, schedule: Q01DX009 (ip), vehicle: saline with Tween-80 102 % of control

CC1(C)CC(O)C2(CO)C(C1)C1=CCC3C4(C)CCC(O)C(C)(C)C4CCC3(C)C1(C)C(O)C2O (stereo not given)
inactive: dose: 5.25 mg/kg/injection, schedule: Q01DX005 (ip), vehicle: Klucel (hydroxypropylcellulose) (HPC) 100 % of control | dose: 10.5 mg/kg/injection, schedule: Q01DX005 (ip), vehicle: Klucel (hydroxypropylcellulose) (HPC) 103 % of control | dose: 21.0 mg/kg/injection, schedule: Q01DX005 (ip), vehicle: Klucel (hydroxypropylcellulose) (HPC) 94 % of control | dose: 42.0 mg/kg/injection, schedule: Q01DX005 (ip), vehicle: Klucel (hydroxypropylcellulose) (HPC) 99 % of control

NC(=O)c1oc([N+](=O)[O-])c(-c2ccccc2)c1-c1ccccc1
inactive: [2] 99 % of control | [3] 102 % of control | [6] 93 % of control

CC1=CC2c3cccc4[nH]cc(c34)CC2N(C)C1 (stereo not given)
inactive: dose: 2.5 mg/kg/injection, schedule: Q01DX009 (ip), vehicle: saline 114 % of control and 116 % of control | dose: 5.0 mg/kg/injection, schedule: Q01DX009 (ip), vehicle: saline 117 % of control | dose: 10.0 mg/kg/injection, schedule: Q01DX009 (ip), vehicle: saline 116 % of control and 120 % of control

CC1/C(=N\N=C(N)N)c2ccccc2/C1=N/N=C(N)N (stereo not given)
inactive: dose: 25.0 mg/kg/injection, schedule: Q01DX001 (ip), vehicle: saline 106 % of control | dose: 50.0 mg/kg/injection, schedule: Q01DX001 (ip), vehicle: saline 102 % of control | dose: 100.0 mg/kg/injection, schedule: Q01DX001 (ip), vehicle: saline 99 % of control

O=c1[nH][nH]c(=O)n1/N=C\c1ccccc1O
inactive: dose: 50.0 mg/kg/injection, schedule: Q01DX001 (ip), vehicle: Klucel (hydroxypropylcellulose) (HPC) 100 % of control | [7] 104 % of control | [8] 98 % of control

CSCCC(NC(=O)C1CCCN1C(=O)OCc1ccccc1)C(=O)O (stereo not drawn) (Cbz-Pro-Met-OH; configuration not given here)
inactive: [2] 104 % of control | [3] 106 % of control | [6] 105 % of control

CC1CC[N-]CC1.CC1CC[N-]CC1.CS(C)=O.[Cl][Rh]([Cl])[Cl]
inactive: dose: 3.0 mg/kg/injection, schedule: Q01DX009 (ip), vehicle: saline with Tween-80 104 % of control | dose: 3.0 mg/kg/injection, schedule: Q04DX003 (ip), vehicle: saline with Tween-80 104 % of control | dose: 6.0 mg/kg/injection, schedule: Q01DX009 (ip), vehicle: saline with Tween-80 95 % of control | dose: 6.0 mg/kg/injection, schedule: Q04DX003 (ip), vehicle: saline with Tween-80 100 % of control | dose: 12.0 mg/kg/injection, schedule: Q01DX009 (ip), vehicle: saline with Tween-80 95 % of control | dose: 12.0 mg/kg/injection, schedule: Q04DX003 (ip), vehicle: saline with Tween-80 109 % of control

CCC(C)C1NC(=O)C2C(CCN2C(=O)C(Cc2c[nH]c3ccccc23)NC(=O)C(CC(C)C)N(C)C)Oc2ccc(cc2)/C=C\NC1=O (stereo not given)
inactive: dose: 100.0 mg/kg/injection, schedule: Q04DX003 (ip), vehicle: saline with Tween-80 94 % of control | dose: 200.0 mg/kg/injection, schedule: Q04DX003 (ip), vehicle: saline with Tween-80 97 % of control

CC1(C)OCC(CO)O1 (stereo not given)
inactive: dose: 50.0 mg/kg/injection, schedule: Q01DX009 (ip), vehicle: saline 106 % of control | dose: 100.0 mg/kg/injection, schedule: Q01DX009 (ip), vehicle: saline 114 % of control | dose: 200.0 mg/kg/injection, schedule: Q01DX009 (ip), vehicle: saline 111 % of control

COCC(=O)Nc1ncc([N+](=O)[O-])s1
inactive: dose: 50.0 mg/kg/injection, schedule: Q01DX009 (ip), vehicle: Klucel (hydroxypropylcellulose) (HPC) 102 % of control | [4] 100 % of control | [5] 94 % of control

CCOc1cc2c(cc1Cc1ccc3c(c1)OCO3)OCO2
inactive: [2] 97 % of control | [3] 107 % of control | [6] 107 % of control

O=C1CC2CC3C1C2n1c(=O)n(-c2ccccc2)c(=O)n13 (stereo not given)
inactive: [7] 107 % of control | [8] 101 % of control | dose: 400.0 mg/kg/injection, schedule: Q01DX001 (ip), vehicle: Klucel (hydroxypropylcellulose) (HPC) 96 % of control
